By T/C is commonly meant the ratio of treated to control.

Values joined by “and” are separate entries in the source; they are usually repeats but may differ in a detail not shown here. Equal entries are not always repeated.

The assay concerns BDF1 mice, Adenocarcinoma 755 s.c., tumor weight T/C. Briefly: NCI In Vivo Anticancer Drug Screen. Data for tumor model Adenocarcinoma 755 (subcutaneous) in B6D2F1 (BDF1) mice. The conditions noted are these: endpoint: mean tumor weight, higher = larger tumour. The method, boiled down:
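Readout: T/C, i.e. treated-group measurement over vehicle-control measurement. Endpoint is survival or tumor size in tumor-bearing mice given compound.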

[1] abbreviates: dose: 37.5 mg/kg/injection, schedule: Q01DX011 (ip), vehicle: saline.
Setting [2] is: dose: 75.0 mg/kg/injection, schedule: Q01DX011 (ip), vehicle: saline.
The mark [3] stands for this setting: dose: 150.0 mg/kg/injection, schedule: Q01DX011 (ip), vehicle: saline.
[4] abbreviates: dose: 300.0 mg/kg/injection, schedule: Q01DX011 (ip), vehicle: saline.
The mark [5] stands for this setting: dose: 15.0 mg/kg/injection, schedule: Q01DX011 (ip), vehicle: methylcellulose (MC).
Setting [6] is: dose: 31.0 mg/kg/injection, schedule: Q01DX011 (ip), vehicle: methylcellulose (MC).
Where [7] appears, read: dose: 5.0 mg/kg/injection, schedule: Q01DX011 (ip), vehicle: carboxymethylcellulose (CMC).
Where [8] appears, read: dose: 6.0 mg/kg/injection, schedule: Q01DX011 (sc), vehicle: steriod suspending solution.
The mark [9] stands for this setting: dose: 12.0 mg/kg/injection, schedule: Q01DX011 (sc), vehicle: steriod suspending solution.
[10] abbreviates: dose: 24.0 mg/kg/injection, schedule: Q01DX011 (sc), vehicle: steriod suspending solution.
The mark [11] stands for this setting: dose: 48.0 mg/kg/injection, schedule: Q01DX011 (sc), vehicle: steriod suspending solution.
Setting [12] is: dose: 62.0 mg/kg/injection, schedule: Q01DX011 (ip), vehicle: methylcellulose (MC).
The mark [13] stands for this setting: dose: 30.0 mg/kg/injection, schedule: Q01DX011 (ip), vehicle: carboxymethylcellulose (CMC).
Where [14] appears, read: dose: 12.5 mg/kg/injection, schedule: Q01DX011 (ip), vehicle: carboxymethylcellulose (CMC).
Setting [15] is: dose: 25.0 mg/kg/injection, schedule: Q01DX011 (ip), vehicle: carboxymethylcellulose (CMC).
[16] abbreviates: dose: 50.0 mg/kg/injection, schedule: Q01DX011 (ip), vehicle: carboxymethylcellulose (CMC).

With `CC(Sc1nc(N)nc2nc[nH]c12)C(=O)O` (stereo not given), the T/C under setting [1] was 81 % of control, the T/C under setting [2] is 74 % of control, the T/C under setting [3] is 45 % of control and the T/C under setting [4] was 12 % of control.
On to `Nc1nc(=S)cc(Nc2ccc(Cl)c(Cl)c2)[nH]1`, for which the T/C reads like this: under setting [5], 114 % of control; under setting [6], 92 % of control.
Turning to `C=C(Br)CN(C)CCO`, the T/C by setting is: (dose: 50.0 mg/kg/injection, schedule: Q01DX011 (ip), vehicle: other) 85 % of control; (dose: 100.0 mg/kg/injection, schedule: Q01DX011 (ip), vehicle: other) 76 % of control; (dose: 200.0 mg/kg/injection, schedule: Q01DX011 (ip), vehicle: other) 53 % of control.
As to `Cn1ncc2c(NCc3ccccc3)ncnc21`, the T/C is 62 % of control and 66 % of control and 71 % of control under setting [7]; 43 % of control and 58 % of control and 60 % of control (dose: 10.0 mg/kg/injection, schedule: Q01DX011 (ip), vehicle: carboxymethylcellulose (CMC)); 5 % of control and 24 % of control and 29 % of control (dose: 20.0 mg/kg/injection, schedule: Q01DX011 (ip), vehicle: carboxymethylcellulose (CMC)).
For the compound `CC1(C)O[C@@H]2C[C@H]3[C@@H]4CCC5=CC(=O)CC[C@]5(C)[C@@]4(F)[C@@H](O)C[C@]3(C)[C@]2(C(=O)CO)O1`, the T/C is, setting by setting: (dose: 0.3 mg/kg/injection, schedule: Q01DX011 (sc), vehicle: steriod suspending solution) 60 % of control; (dose: 0.7 mg/kg/injection, schedule: Q01DX011 (sc), vehicle: steriod suspending solution) 42 % of control; (dose: 0.75 mg/kg/injection, schedule: Q01DX011 (sc), vehicle: steriod suspending solution) 82 % of control; under setting [8], 36 % of control; (dose: 6.25 mg/kg/injection, schedule: Q01DX011 (sc), vehicle: steriod suspending solution) 41 % of control; under setting [9], 16 % of control. In addition, the T/C is, setting by setting: (dose: 12.5 mg/kg/injection, schedule: Q01DX011 (sc), vehicle: steriod suspending solution) 31 % of control; under setting [10], 8 % of control (2×) and 14 % of control; (dose: 25.0 mg/kg/injection, schedule: Q01DX011 (sc), vehicle: steriod suspending solution) 20 % of control; under setting [11], 8 % of control.
With `CCC(C)N1C(=O)CCC1=O` (stereo not given), the T/C runs as follows: under setting [1], 26 % of control; under setting [2], 58 % of control; under setting [3], 95 % of control; under setting [4], 99 % of control.
With `CSc1nc(N)nc2nc[nH]c12`, the T/C is 51 % of control (dose: 0.6 mg/kg/injection, schedule: Q01DX011 (ip), vehicle: carboxymethylcellulose (CMC)); 55 % of control (dose: 1.25 mg/kg/injection, schedule: Q01DX011 (ip), vehicle: carboxymethylcellulose (CMC)); 75 % of control (dose: 2.5 mg/kg/injection, schedule: Q01DX011 (ip), vehicle: carboxymethylcellulose (CMC)); 28 % of control under setting [7]; 1 % of control (dose: 15.0 mg/kg/injection, schedule: Q01DX011 (ip), vehicle: carboxymethylcellulose (CMC)).
For `NNC(=O)CCC(N)C(=O)O` (stereo not given), the T/C is, setting by setting: (dose: 10.21 mg/kg/injection, schedule: Q01DX011 (ip), vehicle: carboxymethylcellulose (CMC)) 121 % of control; (dose: 13.0 mg/kg/injection, schedule: Q01DX011 (ip), vehicle: carboxymethylcellulose (CMC)) 91 % of control; (dose: 20.42 mg/kg/injection, schedule: Q01DX011 (ip), vehicle: carboxymethylcellulose (CMC)) 96 % of control; (dose: 26.0 mg/kg/injection, schedule: Q01DX011 (ip), vehicle: carboxymethylcellulose (CMC)) 60 % of control; (dose: 40.85 mg/kg/injection, schedule: Q01DX011 (ip), vehicle: carboxymethylcellulose (CMC)) 151 % of control; (dose: 43.05 mg/kg/injection, schedule: Q01DX011 (ip), vehicle: carboxymethylcellulose (CMC)) 97 % of control. Moreover, the T/C by setting is: (dose: 52.0 mg/kg/injection, schedule: Q01DX011 (ip), vehicle: carboxymethylcellulose (CMC)) 70 % of control; (dose: 81.7 mg/kg/injection, schedule: Q01DX011 (ip), vehicle: carboxymethylcellulose (CMC)) 67 % of control; (dose: 86.1 mg/kg/injection, schedule: Q01DX011 (ip), vehicle: carboxymethylcellulose (CMC)) 98 % of control; (dose: 104.0 mg/kg/injection, schedule: Q01DX011 (ip), vehicle: carboxymethylcellulose (CMC)) 56 % of control.
Take `CC1CN(Cc2ccco2)C(=S)N(c2ccccc2)C1=O` (stereo not given): the T/C reads like this: under setting [5], 81 % of control; under setting [6], 84 % of control; under setting [12], 99 % of control; (dose: 125.0 mg/kg/injection, schedule: Q01DX011 (ip), vehicle: methylcellulose (MC)) 84 % of control; (dose: 250.0 mg/kg/injection, schedule: Q01DX011 (ip), vehicle: methylcellulose (MC)) 98 % of control.
As to `Cc1cc(C)c(/C=N/Nc2nc3c(c(=O)n(C)c(=O)n3C)n2C)c(C)c1`, the T/C under setting [13] is 68 % of control and the T/C (dose: 60.0 mg/kg/injection, schedule: Q01DX011 (ip), vehicle: carboxymethylcellulose (CMC)) was 106 % of control.
For `COC(=O)C1(N)CCCC1`, the T/C by setting is: under setting [14], 63 % of control; under setting [15], 35 % of control; under setting [16], 11 % of control; (dose: 100.0 mg/kg/injection, schedule: Q01DX011 (ip), vehicle: carboxymethylcellulose (CMC)) 5 % of control.
On to `COC(=O)C1C(O)CCC2CN3CCc4c([nH]c5ccccc45)C3CC21` (stereo not given), for which, for the setting “dose: 150.0 mg/kg/injection, schedule: Q01DX011 (ip), vehicle: carboxymethylcellulose (CMC)”, the T/C was 75 % of control.
As for `CSc1ncnc2c1ncn2CCCl`, the T/C is 92 % of control (dose: 1.5 mg/kg/injection, schedule: Q01DX011 (ip), vehicle: carboxymethylcellulose (CMC)); 80 % of control (dose: 3.0 mg/kg/injection, schedule: Q01DX011 (ip), vehicle: carboxymethylcellulose (CMC)); 31 % of control (dose: 6.0 mg/kg/injection, schedule: Q01DX011 (ip), vehicle: carboxymethylcellulose (CMC)); 34 % of control (dose: 6.2 mg/kg/injection, schedule: Q01DX011 (ip), vehicle: carboxymethylcellulose (CMC)); 4 % of control under setting [14].
`CC(=O)CSc1nc(N)nc2nc[nH]c12`: the T/C was 32 % of control (dose: 3.9 mg/kg/injection, schedule: Q01DX011 (ip), vehicle: methylcellulose (MC)); 6 % of control (dose: 7.8 mg/kg/injection, schedule: Q01DX011 (ip), vehicle: methylcellulose (MC)); 7 % of control (dose: 15.6 mg/kg/injection, schedule: Q01DX011 (ip), vehicle: methylcellulose (MC)).
For `Cn1c(=O)c2c(nc(C(=N)SCC(=O)O)n2C)n(C)c1=O`, the T/C (dose: 25.0 mg/kg/injection, schedule: Q01DX011 (ip), vehicle: methylcellulose (MC)) was 61 % of control.
With `C[C@]12C=CC(=O)C=C1[C@@H](F)C[C@@H]1[C@@H]2[C@@H](O)C[C@@]2(C)[C@H]1CC[C@]2(O)C(=O)CO`, the T/C (dose: 3.0 mg/kg/injection, schedule: Q01DX011 (ip), vehicle: methylcellulose (MC)) was 63 % of control and 64 % of control; the T/C (dose: 3.0 mg/kg/injection, schedule: Q01DX011 (sc), vehicle: steriod suspending solution) is 51 % of control; the T/C (dose: 6.0 mg/kg/injection, schedule: Q01DX011 (ip), vehicle: methylcellulose (MC)) was 41 % of control and 43 % of control; the T/C under setting [8] was 53 % of control; the T/C (dose: 12.0 mg/kg/injection, schedule: Q01DX011 (ip), vehicle: methylcellulose (MC)) is 37 % of control and 41 % of control; the T/C under setting [9] was 46 % of control. Also, the T/C runs as follows: (dose: 24.0 mg/kg/injection, schedule: Q01DX011 (ip), vehicle: methylcellulose (MC)) 30 % of control and 40 % of control; under setting [10], 30 % of control; under setting [11], 23 % of control.
`Cc1cnc(SCc2ccc(Cl)cc2Cl)nc1N(C)C`: the T/C under setting [12] was 55 % of control.
Take `Cn1cnc2c(Cl)nc(C(F)(F)F)nc21`: the T/C under setting [13] is 80 % of control.
Turning to `OC1CC([CH2][Hg][I])OC([CH2][Hg][I])C1` (stereo not given), the T/C is 60 % of control under setting [15] and 30 % of control under setting [16].

(Values after PubChem BioAssay AID180 (DTP/NCI, 2004).)
